In patent publication EP0051301A1, “1-Carboxy-azaalkyl-indolin-2-carboxylic acids, process for preparing them, pharmaceutical compositions containing them and their therapeutical use” (CIBA-GEIGY AG, priority 1980, dated 1982):
Counter-ions that a name gives are not always drawn.

How the values were obtained:
[1] = test system: durch Angiotensin I (AI) hervorgerufenen Blutdrucksteigerung; test: Inhibition of the blood pressure rise caused by angiotensin I in anaesthetised normotensive rats; type: in vivo, Ratte; conditions: rat, mean value 30 min after administration
Description: Die neuen Verbindungen zeigen auch eine Hemmwirkung auf das Ansprechen des Blutdrucks von normotensiven Ratten auf Angiotensin I. Das Enzym Renin verursacht unter normalen Verhältnissen eine spezifische Hydrolyse des zirkulierenden Renin-Substrat-Proteins. Diese Hydrolyse ergibt das Angiotensin I, welches durch die Einwirkung des genannten Enzyms, welches das Angiotensin umwandelt, in das stark gefässverengernde Angiotensin II weiter hydrolysiert wird. Durch Hemmung des genannten Enzyms wird die Entstehung des Angiotensins II aus I verhindert. Diese Hemmung dämpft daher jedes Ansprechen des Blutdrucks nach einer Angiotenin-I-Attacke.
Der entsprechende in vivo Test wird mit männlichen, normotensiven Ratten, welche mit 100-120 mg/kg intraperitoneal verabreichtem Natriumsalz des Aethyl-(l-methylpropyl)-malonylthioharnstoffs narkotisiert sind, vorgenommen. Eine femurale Arterie und eine Wadenvene werden mit je einer Hohlnadel für die direkte Messung des Blutdrucks und für die intravenöse Verabreichung des Angiotensins I und der erfindungsgemässen Verbindungen, versehen. Nach der Stabilisierung des basalen Blutdrucks, wird die Druckänderung nach drei, in 5-minutigen Intervallen durchgeführten, Reizungen mit 0,33 µg/kg Angiotensin I i.v., bestimmt. Druckänderungen werden auch 5, 10, 15, 30 und 60 Minuten nach entweder intravenöser oder peroraler Verabreichung (mit Magensonde) der zu prüfenden Verbindungen bestimmt. Die letztgenannten Druckänderungen werden mit den Anfangswerten verglichen. Jede festgestellte Abnahme vom Ansprechen des Blutdrucks ist ein Hinweis auf die Hemmung des Enzyms, welches das Angiotensin umwandelt. Diese Abnahme kann bis zu 80%, nach Dosen von 10 mg/kg i.v. oder 50 mg/kg p.o., betragen und bis 60 Minuten lang andauern.
In der in vivo Prüfungsmethode wird zuerst durch Verabreichung des Angiotensins 1 (AI) an das Versuchstier eine Blutdrucksteigerung hervorgerufen. Es wird dann die Hemmung der einzelnen Verbindungen auf diese Blutdrucksteigerung gemessen.
II. Methode der Hemmung der durch Angiotensin I (AI) hervorgerufenen Blutdrucksteigerung, durch intravenöse Verabreichung der Testverbindung (Z AI-Hemmung) In diesen Untersuchungen wird wie oben beschrieben, je ein Katheter in eine femurale Arterie und in eine Wadenvene der Ratte eingeführt.
Der arterielle Druck wurde von dem Arterienkatheter aus registriert, während man Angiotensin I (AI) und die einzelnen Testverbindungen durch den Venenkatheter injiziert hatte. Die Hemmung der durch Angiotensin I verursachten Blutdrucksteigerung ist in der Tabelle als Durchschnittswert 30 Minuten nach der Verabreichung von ausgewählten Dosen der jeweiligen Verbindung wiedergegeben. Dabei werden solche Dosierungen ausgewählt, so dass u.a. der ID50 (i.v.)-Wert ermittelt werden kann.

[2] = molecular target: T1, angiotensin converting enzyme = ACE (Oryctolagus cuniculus, UniProt P12822); test: In vitro ACE inhibition (ACEI), release of histidyl-leucine from hippuryl-histidyl-leucine, rabbit lung tissue preparation; type: biochemical, Kaninchen; conditions: incubation 30 min at 37°
T1 construct: Dieses Enzym wird aus Lungen von erwachsenen männlichen Kaninchen in Tris-Puffer; from tissue; host or cells: lung of adult male rabbits
T1 sequence (P12822 34-1310): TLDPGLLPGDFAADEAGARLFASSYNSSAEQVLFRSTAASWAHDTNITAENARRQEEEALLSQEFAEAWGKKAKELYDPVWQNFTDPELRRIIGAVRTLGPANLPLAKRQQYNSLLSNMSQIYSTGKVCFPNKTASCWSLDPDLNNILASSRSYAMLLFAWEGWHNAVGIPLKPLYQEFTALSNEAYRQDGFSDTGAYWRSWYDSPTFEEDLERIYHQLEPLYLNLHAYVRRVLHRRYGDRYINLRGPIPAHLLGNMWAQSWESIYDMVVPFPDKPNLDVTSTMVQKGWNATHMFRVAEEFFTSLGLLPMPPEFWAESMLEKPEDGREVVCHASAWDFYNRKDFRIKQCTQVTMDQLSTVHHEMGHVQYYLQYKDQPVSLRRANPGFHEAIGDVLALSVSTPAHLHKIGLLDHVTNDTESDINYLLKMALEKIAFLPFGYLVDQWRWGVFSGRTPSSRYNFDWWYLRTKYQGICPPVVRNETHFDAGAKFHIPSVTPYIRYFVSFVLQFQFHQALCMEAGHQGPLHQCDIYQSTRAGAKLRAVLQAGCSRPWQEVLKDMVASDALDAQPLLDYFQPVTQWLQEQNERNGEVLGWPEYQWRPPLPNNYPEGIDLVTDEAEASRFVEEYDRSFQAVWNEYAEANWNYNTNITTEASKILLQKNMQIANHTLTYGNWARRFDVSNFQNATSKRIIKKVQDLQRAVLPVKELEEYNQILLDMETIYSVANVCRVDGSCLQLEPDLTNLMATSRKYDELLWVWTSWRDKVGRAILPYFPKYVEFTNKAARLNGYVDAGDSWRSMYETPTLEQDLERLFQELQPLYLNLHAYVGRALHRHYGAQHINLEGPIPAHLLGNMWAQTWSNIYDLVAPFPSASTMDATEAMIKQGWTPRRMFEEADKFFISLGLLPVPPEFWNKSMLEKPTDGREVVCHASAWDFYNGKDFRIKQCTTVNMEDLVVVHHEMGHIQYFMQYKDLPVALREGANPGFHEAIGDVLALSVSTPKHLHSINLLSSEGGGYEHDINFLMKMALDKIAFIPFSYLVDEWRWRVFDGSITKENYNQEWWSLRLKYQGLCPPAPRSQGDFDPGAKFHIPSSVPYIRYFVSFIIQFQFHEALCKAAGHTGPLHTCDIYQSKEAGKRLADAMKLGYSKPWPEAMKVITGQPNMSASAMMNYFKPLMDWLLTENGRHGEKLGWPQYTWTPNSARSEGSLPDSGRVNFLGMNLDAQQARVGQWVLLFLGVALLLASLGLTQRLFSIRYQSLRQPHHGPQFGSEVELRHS
Description: Die in vitro Hemmung des Enzyms, welches das Angiotensin umwandelt, kann bei den Verbindungen dieser Erfindung analog zu Biochim. Biophys. Acta 293, 451 (1973) nachgewiesen werden. Gemäss dieser Methode werden die genannten Verbindungen in ungefähr 1 mMol Konzentrationen in Phosphatpuffer, welcher von aussen mit Eis gekühlt wird, aufgelöst. Zu diesen Lösungen gibt man zuerst verschiedene µl-Mengen von 1 mMolarem Histidyl-leucin in Phosphatpuffer und dann 100 pl von 5mMolarem Hippuryl-histidyl-leucin in Phosphatpuffer und 50 pl des Angiotensin-umwandelnden Enzyms. Dieses Enzym wird aus Lungen von erwachsenen männlichen Kaninchen in Tris-Puffer, der Kalium-und Magnesiumchlorid und auch Rohrzucker enthält, frisch hergestellt. Die genannten Lösungen werden 30 Minuten bei 37° inkubiert und die weitere Reaktion wird durch Hinzufügen von 0,75 ml einer 0,6-normalen wässerigen Natriumhydroxidlösung gestoppt. Dann gibt man bei Zimmertemperatur 100 µl o-Phthalaldehyd und nach 10 Minuten 100 µl 6-normaler Chlorwasserstoffsäure dazu. Die Proben werden in einem Spektroghotometer bei 360 nm mit Wasser verglichen und ihre optische Dichte wird bestimmt. Diese Werte werden durch einen Konversionsfaktor einer Standard-Kurve angepasst, wobei man die während der genannten Inkubation von 30 Minuten gebildete Histidyl-leucin-Menge in Nanomolen erhält. Die Ergebnisse werden, um den IC50-Wert zu bestimmen, gegenüber den Wirkstoff-Konzentrationen graphisch als Kurve dargestellt. Dieser Wert bedeutet diejenige Wirkstoff-Konzentration, welche die Hälfte der Aktivität einer Kontrollprobe, die keinen Wirkstoff enthält, ergibt. Die genannten repräsentativen Verbindungen der vorliegenden Erfindung sind auch in diesem in vitro Testsystem, bis zu dem IC50-Wert von 39 nM und darunter, sehr wirksam.
Die Prüfung der Wirkung von Verbindungen ist gemäss den Methoden für die Auswertung der Hemmung des Enzyms, welches das Angiotensin umwandelt [angiotensin converting enzyme = ACE] durchgeführt worden. […]

Row | IC50 [2] [nM] | SMILES | % AI Hemmungen ([1]; i.v. Dosis 0.1 mg/kg) [%] | % AI Hemmungen ([1]; i.v. Dosis 0.03 mg/kg) [%] | % AI Hemmungen ([1]; i.v. Dosis 0.06 mg/kg) [%] | % AI Hemmungen ([1]; i.v. Dosis 1.0 mg/kg) [%]
1 | 8000 | CCOC(=O)[C@@H](CCc1ccccc1)N[C@@H](C)C(=O)N1c2ccccc2C[C@H]1C(=O)O [Beispiel 6, 1-[N-(lR-Carboäthoxy-3-phenyl-propyl)-S-alanyl]-indolin-2S-carbonsäure-hydrochlorid] | 35 | – | – | –
2 | – | CCOC(=O)[C@H](CCc1ccccc1)N[C@@H](C)C(=O)N1c2ccccc2C[C@H]1C(=O)O [Beispiel 4, 1-[N-(lS-Carboäthoxy-3-phenyl-propyl)-S-alanyl]-indolin-2S-carbonsäurehydrochlorid] | 95 | 33 | 80 | –
3 | 30 | C[C@H](NC(Cc1ccccc1)C(=O)O)C(=O)N1c2ccccc2C[C@H]1C(=O)O (stereo partly drawn) [Beispiel 7, 1-[N-(1-Carboxy-2-phenyl-äthyl)-S-alanyl]-indolin-2S-carbonsäure] | – | – | – | 80
4 | 6 | C[C@H](NC(CCc1ccccc1)C(=O)O)C(=O)N1c2ccccc2C[C@H]1C(=O)O (stereo partly drawn) [Beispiel 1, 1-[N-(1-Carboxy-3-phenylpropyl)-S-alanyl]-indolin-2S-carbonsäure] | 80 | – | – | –
